These results are taken from patent US20150011471A1, “REGENERATION OF ISLET BETA CELLS BY HSP60 DERIVED PEPTIDES” (Yeda Research and Development Co. Ltd., priority 2012, published 2015).

Read-outs that look alike come from different tables or passages of the source. Where no end group is shown, it is not given here.

Test [1] has as its system NOD mice. The following applies: subcutaneous administration; cited from earlier work.
The test system of test [2] is advanced T1D in NOD mice. The text has this: Female non-obese diabetic (NOD) mice, which spontaneously develop autoimmune diabetes that mimics human T1D, are used to test the ability of the Hsp60 peptides and peptide analogs to induce regeneration of pancreatic beta cells. The NOD model is described, for example in Elias and Cohen (Lancet 1994, 343, 704-706). Female NOD mice raised under specific pathogen free (SPF) conditions develop insulitis around 4 weeks of age. […] In addition, the actual appearance of new beta cells, detected by increased C-peptide levels is measured in the revised protocol and not just preservation of initial C-peptide levels as in the original protocol.
Groups of 7 weeks old NOD/ShiLtJ mice (Jackson Number 001976, 10 mice per group) were used. Fasting blood glucose was monitored three times per week during all the treatment period, using methods known in the art. After about 12-20 weeks, when blood glucose reaches a level of […] the mice are treated with insulin in order to keep them alive and divided randomly between the following group treatments: • 1. no treatment; • 2. […]® only, once a week; • 3.
Fasting glucose was measured Hemoglobin A1C and C-peptide levels were measured at the end of treatment, up to six months, depending on the conditions of the control and treated animals.
Histology was performed to detect and count beta cells in pancreatic islets and to observe islet infiltrates. Histology was performed by staining for insulin and detection of appearance of beta cells, as described for example in Lumelsky et al, Science 2001, 292, 1389-1394.

Take “p277: specific peptide of human Hsp60, one of the immunodominant epitopes in autoimmune diabetes; native cysteines at positions 6 and 11 (VLGGGCALLRCIPALDSLTPANED; UniProt P10809 437-460, looked up, fragment)”: in test [1], the “Development of diabetes in NOD mice” value is “prevented the development of diabetes” and the “T-cell reactivity to beta cell antigens” value is reported as “down-regulated”.

For VLGGGVALLRVIPALDSLTPANED [DiaPep277], the “Islets per whole section” value in test [2] (100 μg in INTRALIPID, SC, 1 injection/week) is on record as 3; in test [2] (100 μg in PBS, IP, 3 injections/week), 2; in test [2] (200 μg in INTRALIPID, SC, 1 injection/week) it was 1. Besides, in test [2] (treated mice overall, Table 1), the “Lymphocyte infiltrates compared to control mice treated with placebo” value was “less lymphocyte infiltrates”. In test [2] (treated mice overall, Table 1), the “Number of beta islets compared to control mice treated with placebo” value was “increased number of beta islets”.
